Columns and labels:
Caco-2 cell monolayer [1] = test: TEER of Caco-2 monolayer, DON-induced impairment of barrier integrity; type: cell-based, human; details: for effect on DON-induced loss of epithelial barrier integrity, TEER (FIGS. 1A, 1B), in words: 0.75 wt. % GL, 24 h pretreatment, then DON 4.2 μM 24 h; for TEER in the presence of DON (FIG. 3), single ingredient, in words: DON 4.2 μM, 0.75 wt % beta3′-GL or 600 μM fatty acid alone
Protocol: (§1) beta1,3′-galactosyl-lactose (beta3′-GL), beta1,4′-galactosyllactose (beta4′-GL) and beta1,6′-galactosyl-lactose (beta6′-GL) were obtained from Carbosynth (Berkshire, UK), alpha1,3′-galactosyl-lactose (alpha3′-GL) was obtained from Elicityl (Crolles, France). Purified deoxydivalenol (DON) (D0156; Sigma Aldrich, St Luis, MO, USA) was dissolved in pure ethanol and stored at −20° C. Human epithelial colorectal adenocarcinoma (Caco-2) cells were obtained from American Type Tissue Collection (Code HTB-37) (Manasse, VA, USA, passage 90-102).
(§2) Caco-2 cells were used according to established methods. In brief: cells were cultured in Dulbecco's modified Eagle medium (DMEM) and seeded at a density of 0.3×10^5 cells into 0.3 cm^2 high pore density (0.4 μm) inserts with a polyethylene terephthalate membrane (BD Biosciences, Franklin Lakes, NJ, USA) placed in a 24-well plate. The Caco-2 cells were maintained in a humidified atmosphere of 95% air and 5% CO2 at 37° C. After 17-19 days of culturing, a confluent monolayer was obtained with a mean Transepithelial electrical resistance (TEER) exceeding 400 Ω cm^2 measured by a Millicell-Electrical Resistance System voltohm-meter (Millipore, Temecula, CA, USA).
(§3) Caco-2 cell monolayers were thus grown in a transwell system, which is a model for intestinal barrier function. The monolayers were pretreated for 24 h with different GLs, including beta3′-GL, alpha3′-GL, beta4′-GL and beta6′-GL in a concentration of 0.75 wt. % of the GL, before being exposed to the fungal toxin deoxynivalenol (DON), which is a trigger and model compound to impair intestinal barrier. DON was diluted to a final concentration of 4.2 μM in complete cell medium and added to the apical side as well as to the basolateral side of the transwell inserts. […] Incubation with DON was 24 h.
(§4) Measurements of the transepithelial electrical resistance (TEER) and lucifer yellow (LY) permeability were conducted to investigate barrier integrity. For TEER measurements a Millicel-ERS voltohmmeter connected to a pair of chopsticks electrodes was used to measure the TEER values. Results are expressed as a percentage of the initial value. For paracellular tracer flux assay the membrane impermeable lucifer yellow (LY) (Sigma, St Luis, MO, USA) was added in a concentration of 16 μg/ml to the apical compartment in the transwell plate for 4 h, and the paracellular flux was determined by measuring the fluorescence intensity in the basolateral compartment with a spectrophotofluorimeter (FLUOstar Optima, BMG Labtech, Offenburg, Germany) set at excitation and emission wavelengths of 410 and 520 nm, respectively. Release of interleukin-8 (IL-8 or CXCL8), which is a typical marker for inflammation, was quantified in the medium of the apical side and the basolateral side of the Caco-2 transwell inserts in response to the treatments. CXCL8 concentrations were measured by using the human IL-8 ELISA assay (BD Biosciences, Pharmingem, San Diego, CA, USA) according to manufacturer's instructions. For more details on materials and methods see Akbari et al, 2016, Eur J Nutr. 56(5):1919-1930.
(§5) For TOS concentrations of 0.25 wt. % (TOS 0.25) and 0.5 wt. % (TOS 0.5) were tested.
(§6) Barrier function experiments were performed using the method as described in example 3. Oleic acid (OA) and palmitic acid were obtained from Sigma-Aldrich. Palmitic acid was coupled to fatty acid free Bovine Serum Albumin (BSA, Roche) to make a 6:1 BSA-palmitic acid conjugate solution, which is needed to dissolve palmitic acid in culture medium and therefore common practice in the field (reference Alsabeeh et al, Biochim. Biophys Acta. 2018 February; 1863(2): 143-151). Throughout this document this conjugate solution will be abbreviated as PA.

Caco-2 cell monolayer [2] = test: Lucifer yellow (LY) paracellular flux across Caco-2 monolayer, DON-induced impairment; type: cell-based, human; details: for effect on DON-induced loss of epithelial barrier integrity, LY flux (FIGS. 1C, 1D), in words: 0.75 wt. % GL, 24 h pretreatment, then DON 4.2 μM 24 h
Protocol: as §1, §2, §3, §4, §5
Barrier function experiments were performed using the method as described in example 3. Oleic acid (OA) and palmitic acid were obtained from Sigma-Aldrich. […]

Caco-2 cell monolayer [3] = test: TEER of Caco-2 monolayer with OA, PA, beta3′-GL and combinations (no DON); type: cell-based, human; details: for effect on TEER at 100 μM fatty acid, in words: data not shown
Protocol: as §2, §4, §6
Tables 5a and 5b show the effects of OA and PA and beta3′-GL and its combinations on the intestinal barrier function as measured by TEER.

[4] = tested on: infant microbiota (pooled fecal samples from 3 healthy infants); test: Fermentation of galactosyllactoses by infant fecal microbiota (i-Screen anaerobic colon model); design: species or system human; acetate / lactate: unit not given here; details: for acetate / lactate: t = 24 h
Protocol: The effect of pure 3′-GL, 4′-GL, and 6′-GL of the three galactosyllactoses functionality (pH, lactate, acetate levels) was evaluated. Beta1,3-galactosyllactose (beat3′-GL), beta1,4-galactosyllactose (beta4′-GL) and beta1,6-galactosyllactose (beta6′-GL) were obtained from Carbosynth (Berkshire, UK) Measurements of all parameters were performed after a 24-hour incubation in the high-throughput anaerobic colon model, i-Screen™ (TNO, Zeist, the Netherlands).
Fecal samples from 3 healthy infants (aged 1-4 months) were pooled and activated for 4 hours in a modified standard ileal efflux medium (pH 6.0) at 37° C. under anaerobic conditions. Next, each GL was added. After an incubation for 24 hours at 37° C. under anaerobic conditions, samples were collected for further analysis and pH levels were immediately measured using a pH meter MultiCal pH 526 (WTW, Weilheim, Germany). The samples were centrifuged at 4,000 g for 5 minutes and the supernatant was filter sterilized using 0.45 μm filters. For the SCFA analysis, a mixture of formic acid ([…]), methanol and 2-ethyl butyric acid (internal standard, 2 mg/ml in methanol) was added to the filtered supernatant. A 3 μl sample with a split ratio of 75.0 was injected on a GC-column (ZB-5HT inferno, ID 0.52 mm, film thickness 0.10 μm; Zebron; phenomenex, USA) in a Shimadzu GC-2014 gas chromatograph. The levels of acetic acid and lactic acid were measured. For lactate analysis, the total of D- and L-lactate was determined the filtered supernatant by the Arena 20XL analyser. This assay is based on the D- and L-lactic acid assay kits (Thermo Fisher Scientific oy, www.e-labeling.eu/TSF9843061FU and www.e-labeling.eu/TSF9843081FU). The assay was performed following the manufacturer's instructions with one adaptation: the reagents DLac RI and LLac RI from the two kits were mixed in a 1:1 ratio to detect both L and D isomers of lactic acid simultaneously. Calibration of the assay was done with an ‘Acid combination standard’ (order number 984382) containing both L-lactic acid and D-lactic acid.

[5] = tested on: T84 human intestinal epithelial cells; test: TEER of T84 monolayers pre-incubated with fatty acids, SCFA mix or combination; type: cell-based; details: for % TEER (24 h): relative to medium control at 24 h; for increase of gut barrier function (TEER) versus control: fatty acid 50 μM in combination with SCFA 40 mM; for increase of gut barrier function (TEER) versus control / change of gut barrier function (TEER) versus control: 24 h; for increase of gut barrier function expected for an additive effect: fatty acid 50 μM plus SCFA 40 mM; for change of gut barrier function (TEER) versus control: single ingredient: fatty acid 50 μM or SCFA mix 40 mM
Description: The effect of palmitic acid and oleic acid combined with a mixture of short chain fatty acids (SCFA mix) having a concentration profile that is typical for fermentation of a mixture of galacto-oligosaccharides (GOS) derived from VivinalGOS and long chain fructo-oligosaccharides (RaftilineHP) in a ratio of 9/1 (w/w) on barrier permeability was investigated. The concentration profiles of SCFA is as disclosed in Example 3 of EP2100520 (incorporated by reference herein), specifically as shown in FIG. 3A of EP2100520 (incorporated by reference herein) (see second bar in FIG. 3A), i.e. about 75% being acetic acid. Oleic acid and palmitic acid were obtained from Sigma-Aldrich and coupled to fatty acid free Bovine Serum Albumin (BSA, Sigma-Aldrich) prior to cell treatment.
T84 human intestinal epithelial cells are commonly used to study intestinal barrier integrity in vitro. T84 cells (ATCC, USA) were cultured on 12 mm transwell inserts (0.4 μm, Corning Costrar, USA) in DMEM-F12 glutamax with penicillin-streptomycin (100 IU/ml), supplemented with […]. T84 cells were used 14 days after reaching confluence. Monolayers of T84 cultured on transwell filters were pre-incubated with fatty acids, SCFA mix or a combination thereof for a period of 24 hours.
Epithelial barrier integrity was assessed by measuring transepithelial resistance (TEER; Ω×cm^2) with the epithelial volt-ohm meter (Millicell ERS-2; Millipore USA). TEER measurements were performed at 0, 24, h of incubation. TEER values of the fatty acids (i.e. SCFA, OA, PA) are expressed relative to the medium control TEER values at 24 h.

[6] = tested on: interleukin-8 (IL-8 or CXCL8) release; test: DON-induced IL-8 (CXCL8) release from Caco-2 cells, ELISA; type: cell-based, human; details: DON 4.2 μM alone
Protocol: as §1
Caco-2 cells were used according to established methods. […] After 17-19 days of culturing, a confluent monolayer was obtained with a mean Transepithelial electrical resistance (TEER) exceeding 400 Ω cm^2 measured by a Millicell-Electrical Resistance System voltohm-meter (Millipore, Temecula, CA, USA). […]
Measurements of the transepithelial electrical resistance (TEER) and lucifer yellow (LY) permeability were conducted to investigate barrier integrity. […] Results are expressed as a percentage of the initial value. […] Release of interleukin-8 (IL-8 or CXCL8), which is a typical marker for inflammation, was quantified in the medium of the apical side and the basolateral side of the Caco-2 transwell inserts in response to the treatments. […]

[7] = fatty acid 50 μM + SCFA mix 40 mM
[8] = fatty acid 50 μM, SCFA mix 0 mM

Molecule	effect on DON-induced loss of epithelial barrier integrity, TEER (FIGS. 1A, 1B), in words (Caco-2 cell monolayer [1])	effect on DON-induced loss of epithelial barrier integrity, LY flux (FIGS. 1C, 1D), in words (Caco-2 cell monolayer [2])	TEER in the presence of DON (FIG. 3), single ingredient, in words (Caco-2 cell monolayer [1])	acetate ([4]; 3 mg/ml)	lactate ([4]; 3 mg/ml)	acetate ([4]; 9 mg/ml)	lactate ([4]; 9 mg/ml)	other results
OC[C@H]1O[C@H](O[C@H]2[C@@H](O)[C@@H](CO)O[C@@H](O[C@H]3[C@H](O)[C@@H](O)C(O)O[C@@H]3CO)[C@@H]2O)[C@H](O)[C@@H](O)[C@H]1O (stereo partly drawn) [alpha3′-GL, Gal (alpha 1-3)-Gal (beta 1-4)-Glc]	did not prevent the DON-induced disrupted intestinal barrier	did not prevent the DON-induced disrupted intestinal barrier	–	–	–	–	–	–
Gal (beta 1-3)-Gal (beta 1-4)-Glc [beta3′-GL]	increased TEER values	reduction in the DON-affected LY flux	somewhat higher than in the control	61.3	0.0	77.1	1.3	beta3′-GL concentration at which the effect on gut barrier function is observed (Caco-2 cell monolayer [1]; beta3′-GL content of the TOS tested, DON model): lower than 0.17 wt. %; % TEER (24 h) (Caco-2 cell monolayer [3]; Table 5a: beta3′GL 0.75 w/v %, oleic acid 0, relative to the medium control): 117%; % TEER (24 h) (Caco-2 cell monolayer [3]; Table 5b: 3′GL 0.75, palmitic acid 0): 129%; pH, acetate and lactate after fermentation, in words ([4]; 24 h incubation): the highest levels of acetate and lactate and the lowest pH level
OC[C@H]1O[C@@H](OC[C@H]2O[C@@H](O[C@H]3[C@H](O)[C@@H](O)C(O)O[C@@H]3CO)[C@H](O)[C@@H](O)[C@H]2O)[C@H](O)[C@@H](O)[C@H]1O (stereo partly drawn) [beta6′-GL, Gal (beta 1-6) Gal (beta 1-4)-Glc]	did not show a significant effect	did not show a significant effect	–	51.9	0.0	74.3	2.7	–
CCCCCCCC/C=C\CCCCCCCC(=O)O [OA, oleic acid]	–	–	somewhat higher than in the control	–	–	–	–	% TEER (24 h) [5, 7]: 210%; increase of gut barrier function (TEER) versus control [5]: 110%; increase of gut barrier function expected for an additive effect [5]: 94%; % TEER (24 h) [5, 8]: 134%; change of gut barrier function (TEER) versus control [5]: 34%; effect on TEER at 100 μM fatty acid, in words (Caco-2 cell monolayer [3]): improving effect on TEER was also observed; % TEER (24 h) (Caco-2 cell monolayer [3]; Table 5a: oleic acid 600 μM, beta3′GL 0, relative to the medium control): 138%
CC1=C[C@H]2O[C@@H]3[C@H](O)C[C@](C)([C@@]2(CO)[C@H](O)C1=O)[C@]31CO1 [DON, deoxynivalenol]	–	–	–	–	–	–	–	CXCL8 (IL-8) release (FIG. 2), in words [6]: increased CXCL8 (IL-8) release
CCCCCCCCCCCCCCCC(=O)O [PA, palmitic acid]	–	–	did not improve the TEER in the presence of DON	–	–	–	–	% TEER (24 h) [5, 7]: 143%; increase of gut barrier function (TEER) versus control [5]: 43%; increase of gut barrier function expected for an additive effect [5]: 54%; % TEER (24 h) [5, 8]: 94%; change of gut barrier function (TEER) versus control [5]: −6%; effect on TEER at 100 μM fatty acid, in words (Caco-2 cell monolayer [3]): This effect on TEER was also observed; % TEER (24 h) (Caco-2 cell monolayer [3]; Table 5b: palmitic acid 600 μM, 3′GL 0): 69%; gut barrier function by LYF assay, fatty acid alone, in words (Caco-2 cell monolayer [2]; DON model, data not shown): A similar effect was observed
OC[C@H]1O[C@@H](O[C@@H]2[C@H](O)[C@@H](O)[C@H](O[C@H]3[C@H](O)[C@@H](O)C(O)O[C@@H]3CO)O[C@@H]2CO)[C@H](O)[C@@H](O)[C@H]1O (stereo partly drawn) [beta4′-GL, Gal (beta 1-4)-Gal (beta 1-4)-Glc]	did not show a significant effect	did not show a significant effect	–	52.2	0.0	65.4	3.6	–

Reference: US20240277739A1, “NUTRITONAL COMPOSITIONS FOR GUT BARRIER FUNCTION” (N.V. Nutricia, priority 2021, published 2024)
